Results reported in patent US20230140972A1, “GLYCEROL GLUCOSIDE-BASED COMPOUND AND COMPOSITION COMPRISING SAME FOR ULTRAVIOLET LIGHT SHIELD OR ANTI-INFLAMMATION” (ATHENA CO., LTD., priority 2020, published 2023).

How the values were obtained:
[1] = tested on: total NO production in LPS-treated RAW264.7 cells; experiment: Nitric oxide (total NO) production and inhibition, enzymatic method; assay type: cell-based, mouse; conditions: LPS 1 μg/mL; for Total NO production: 24 h
Description: An NO assay was performed to evaluate an amount of nitric oxide (total NO) production and a production inhibition rate of the glycerol glucoside-based compound sample (EPS-S).
Specifically, subcultured RAW264.7 cells were aliquoted into a 96-well plate at 1×10^5 cells/well, and cultured at 37° C. in an incubator containing 5% carbon dioxide for 24 hours, and then a culture media was replaced with a serum-free media. Then, each sample is diluted by concentration and treated onto the cells with LPS (final 1 μg/mL). After culturing for 24 hours, a cell culture medium was treated with nitrate reductase, enzyme cofactor and enhancer to react. A Griess reagent was added and an absorbance was measured at 540 nm with a microplate reader. A total NO production was obtained by substituting the absorbance into a standard nitric oxide calibration curve, and a total NO production inhibition rate (%) was analyzed through Equation 2 and expressed as a mean±standard deviation. Dexamethasone was used as a positive control group.

[2] = tested on: PGE2 production in RAW264.7 cells; experiment: PGE2 production inhibition using ELISA assay; assay type: cell-based, mouse; conditions: LPS 10 ng/mL, 24 h
Description: A PGE2 production inhibition ability of the sample in RAW264.7 cells was evaluated using a PGE2 ELISA assay.
Specifically, subcultured RAW264.7 cells were aliquoted into a 6-well dish at 1.5×10^6 cells/well and cultured for 24 hours at 37° C. in an incubator containing 5% carbon dioxide, and then a culture media was replaced with a serum-free media. Then, each sample was diluted by concentration and treated onto the cells with LPS (final 10 ng/mL). After culturing for 24 hours, the cell culture medium was recovered and a PGE2 ELISA assay was performed.
100 μL of each of a standard solution and a cell culture solution were put into each well, and then 50 μL of PGE2 conjugate and 50 μL of PGE2 antibody were sequentially added and reacted at room temperature for 2 hours. Then, the reaction solution was removed from each well, washing is performed with a wash buffer, 200 μL of a substrate solution was then added, and reacted at room temperature for 45 minutes. Then, 50 μL of a stop solution was added and an absorbance was measured at 405 and 570 nm. Dexamethasone was used as a positive control group. After the test was conducted once, an amount of PGE2 production was calculated by substituting the absorbance value into a PGE2 standard solution calibration curve, and the PGE2 production inhibition rate (%) was calculated using Equation 5 below and expressed as the mean±standard deviation.

[3] = tested on: TNF-α production in RAW264.7 cells; experiment: TNF-α production inhibition using ELISA assay; assay type: cell-based; conditions: Mus musculus, LPS 10 ng/mL, 24 h
Description: A TNF-α production inhibition ability of the sample in RAW264.7 cells was evaluated using a TNF-α ELISA assay.
Specifically, subcultured RAW264.7 cells were aliquoted into a 6-well dish at 1.5×10^6 cells/well, and cultured for 24 hours at 37° C. in an incubator containing 5% carbon dioxide, and then a culture media was replaced with a serum-free media. Then, each sample was diluted by concentration and treated onto the cells with LPS (final 10 ng/mL). After culturing for 24 hours, the cell culture medium was recovered and the TNF-α ELISA assay was performed.
50 μL of an assay diluent was put into each well, and 50 μL of each of a standard solution and a cell culture solution were added to each well and reacted at room temperature for 2 hours. Thereafter, the reaction solution was removed from each well, washed with a wash buffer, 100 μL of TNF-α conjugate was added, and after reacting at room temperature for 2 hours, the reaction solution was removed from each well and washing is performed with a wash buffer.
Thereafter, 100 μL of a substrate solution was added and a reaction under light blocking was carried out at room temperature, and then 100 μL of a stop solution was added, and an absorbance was measured at 450 and 570 nm. Dexamethasone was used as a positive control group. After the test was conducted once, a TNF-α synthesis amount was calculated by substituting the absorbance value into a TNF-α standard solution calibration curve, and then the TNF-α production inhibition rate (%) was calculated using Equation 3 below, and expressed as the mean±standard deviation of the experiment.

[4] = tested on: NO production in LPS-treated RAW264.7 cells; experiment: Nitric oxide (NO) production inhibition, non-enzymatic method (Griess); assay type: cell-based; conditions: Mus musculus, LPS 1 μg/mL, 24 h, read-out: NO production inhibition rate
Description: An NO assay was performed to evaluate the nitric oxide (NO) production inhibition ability of the glycerol glucoside-based compound sample (EPS-S).
Specifically, subcultured RAW264.7 cells were aliquoted in a 96-well plate at 1×10^5 cells/well, and cultured for 24 hours at 37° C. in an incubator containing 5% carbon dioxide, and then, a culture media was replaced with a serum-free media. Then, each sample was diluted by concentration, treated onto the cell with LPS (final 1 μg/mL), and after culturing for 24 hours, the cell culture medium and a Griess reagent were reacted, and an absorbance was then measured at 540 nm with a microplate reader. Dexamethasone was used as a positive control group. After the test was conducted once, each absorbance value was substituted into Equation 2 below to obtain the NO production inhibition rate (%), and it was expressed as the mean±standard deviation.

[5] = tested on: NO2 production in LPS-treated RAW264.7 cells; experiment: Nitric oxide (NO2) production amount and inhibition, non-enzymatic method; assay type: cell-based, mouse; conditions: LPS 1 μg/mL, 24 h
Description: An NO assay was performed to evaluate an amount of nitric oxide (NO2) production and a production inhibition ability of the glycerol glucoside-based compound sample (EPS-S).
Specifically, subcultured RAW264.7 cells were aliquoted into a 96-well plate at 1×10^5 cells/well, and cultured at 37° C. in an incubator containing 5% carbon dioxide for 24 hours, and then a culture media was replaced with a serum-free media. […] Dexamethasone was used as a positive control group.

C[C@@H]1C[C@H]2[C@@H]3CCC4=CC(=O)C=C[C@]4(C)[C@@]3(F)[C@@H](O)C[C@]2(C)[C@@]1(O)C(=O)CO [Dexamethasone]
Total NO production ([1]; 10 μM): 41.15 ± 0.43 µM
Total NO production ([1]; 10 μM, listed as dexamethasone): 41.15 µM
Total NO production ([1]; 20 μM): 38.84 ± 1.24 µM
Total NO production ([1]; 20 μM, listed as dexamethasone): 38.84 µM
Total NO production ([1]; 80 μM): 37.82 ± 0.75 µM
Total NO production ([1]; 80 μM, listed as dexamethasone): 37.82 µM
inhibition at 10 µM ([1]; Mus musculus, RAW264.7, 24 h, 10 μM, read-out: Total NO production inhibition rate): 42.8%
inhibition at 20 µM ([1]; Mus musculus, RAW264.7, 24 h, 20 μM, read-out: Total NO production inhibition rate): 48.7%
inhibition at 80 µM ([1]; Mus musculus, RAW264.7, 24 h, 80 μM, read-out: Total NO production inhibition rate): 51.4%
PGE2 production inhibitory ability ([2]; 10 Mm (10 μM)): 83.55%
inhibition at 1 µM ([2]; Mus musculus, RAW264.7, 1 μM, read-out: PGE2 production inhibitory ability): 62.3%
inhibition at 5 µM ([2]; Mus musculus, RAW264.7, 5 μM, read-out: PGE2 production inhibitory ability): 81.4%
inhibition at 20 µM ([2]; Mus musculus, RAW264.7, 20 μM, read-out: PGE2 production inhibitory ability): 86.4%
inhibition at 80 µM ([2]; Mus musculus, RAW264.7, 80 μM, read-out: PGE2 production inhibitory ability): 96.4%
inhibition at 1 µM ([3]; 1 μM, read-out: TNF-α production inhibition ability): 13.8%
inhibition at 5 µM ([3]; 5 μM, read-out: TNF-α production inhibition ability): 34.7%
inhibition at 10 µM ([3]; 10 μM, read-out: TNF-α production inhibition ability): 46.5%
inhibition at 20 µM ([3]; 20 μM, read-out: TNF-α production inhibition ability): 52.1%
inhibition at 50 µM ([3]; 50 μM (text b137), read-out: TNF-α production inhibition rate): 65%
inhibition at 80 µM ([3]; 80 μM, read-out: TNF-α production inhibition ability): 65.05 ± 0.6%
inhibition at 10 µM ([4]; 10 μM): 15.6%
inhibition at 20 µM ([4]; 20 μM): 18%
inhibition at 40 µM ([4]; 40 μM): 27.6%
inhibition at 80 µM ([4]; 80 μM): 33.8%
NO2 production amount ([5]; 10 μM): 21.29 ± 0.59 µM
NO2 production amount ([5]; 10 μM, listed as dexamethasone): 21.29 µM
NO2 production amount ([5]; 20 μM): 20.79 ± 0.12 µM
NO2 production amount ([5]; 20 μM, listed as dexamethasone): 20.79 µM
NO2 production amount ([5]; 80 μM): 19.62 ± 0.50 µM
NO2 production amount ([5]; 80 μM, listed as dexamethasone): 19.62 µM
inhibition at 10 µM ([5]; Mus musculus, RAW264.7, 10 μM, read-out: NO2 production inhibition rate): 21.5%
inhibition at 20 µM ([5]; Mus musculus, RAW264.7, 20 μM, read-out: NO2 production inhibition rate): 24.7%
inhibition at 80 µM ([5]; Mus musculus, RAW264.7, 80 μM, read-out: NO2 production inhibition rate): 32.3%
